As usually defined, the DC50 is the concentration at which degradation of the target reaches its halfway point.

The values that follow come from ChEMBL document CHEMBL6078684, “Discovery of a Novel Non-invasive AR PROTAC Degrader for the Topical Treatment of Androgenetic Alopecia” (J Med Chem, 2024).

For series [1], the system named is Human dermal papilla cell. The series is described as follows: Downregulation of AR protein expression in human dermal papilla cells at 1 uM preincubated with testosterone for 24 hrs followed by compound addition and measured after 48 hrs by Western blot analysis. The series is classed as functional, cell-based. Background: Immunoblotting shows a protein as a band on a membrane.

The subject of series [2] is Human dermal papilla cell. As to the kind of experiment: Upregulation of beta-catenin level in human dermal papilla cells at 1 uM preincubated with testosterone for 24 hrs followed by compound addition and measured after 48 hrs by Western blot analysis. The series is classed as functional, cell-based.
For series [3], the system named is Human dermal papilla cell. As to the kind of experiment: Downregulation of TGF-beta1 expression level in human dermal papilla cells at 1 uM preincubated with testosterone for 24 hrs followed by compound addition and measured after 48 hrs by Western blot analysis. The series is classed as functional, cell-based.
Series [4] is described as follows: Inhibition of TGF-beta1 release in human dermal papilla cells assessed as TGF-beta1 concentration at 1 uM preincubated with testosterone for 24 hrs followed by compound addition and measured after 48 hrs by ELISA. In kind it is functional, Human dermal papilla cell. In general terms: ELISA stands for enzyme-linked immunosorbent assay.
The nature of series [5]: Drug uptake in male Sprague-Dawley rat Dorsal skin assessed as retention rat at 1 mg/ml, TOP measured after 30 mins by LC-MS/MS analysis. The series is classed as ADME, tissue-based, Zone of skin. Particulars: in vivo, topical_or_ocular, 0.5 h.
Series [6] has as its target Protein cereblon/Androgen receptor (Homo sapiens, UniProt P10275+Q96SW2). As to the kind of experiment: PROTAC activity at CRBN/AR in human dermal papilla cell assessed as induction of AR degradation measured after 24 to 72 hrs by Western blot analysis. In kind it is cell-based.
For series [7], the system named is Mus musculus. The series is described as follows: Hair regeneration efficacy in testosterone induced male C57BL/6 mouse androgenetic alopecia model at 5 %, TOP administered once daily for 14 days and measured after 21 days with co-administration of 0.2% testosterone for 28 days by photographic analysis. In kind it is functional, organism-based. Particulars: time 21.0 day.

Series [8] relates to Mus musculus. As to the kind of experiment: Hair regeneration efficacy in testosterone induced male C57BL/6 mouse androgenetic alopecia model earlier pigmentation at 5 %, TOP administered once daily for 14 days and measured after 21 days with co-administration of 0.2% testosterone for 28 days by photographic analysis. In kind it is functional, organism-based. Particulars: time 14.0 day.

Series [9] concerns Mus musculus. The series is described as follows: In vivo induction of AR degradation in testosterone induced male C57BL/6 mouse androgenetic alopecia model assessed as decrease in AR protein level in skin at […] TOP administered once daily for 14 days with co-administration of 0.2% testosterone for 28 days by Western blot analysis. The series is classed as functional, organism-based. Particulars: time 14.0 day.

Series [10] has as its system Mus musculus. The series is described as follows: Hair regeneration efficacy in testosterone induced male C57BL/6 mouse androgenetic alopecia model assessed as generation of thick hair with intact scales at 5 %, TOP administered once daily for 14 days with co-administration of 0.2% testosterone and measured after 28 days by SEM analysis. In kind it is functional, organism-based. Particulars: time 28.0 day.

In series [11] the test system is Mus musculus. As to the kind of experiment: Hair regeneration efficacy in testosterone induced male C57BL/6 mouse androgenetic alopecia model assessed as well formed stratum corneum in hair at 5 %, TOP administered once daily for 14 days with co-administration of 0.2% testosterone and measured after 28 days by SEM analysis. The series is classed as functional, organism-based. Particulars: time 28.0 day.

Series [12] concerns Mus musculus. The series is described as follows: Hair regeneration efficacy in testosterone induced male C57BL/6 mouse androgenetic alopecia model assessed as entry of hair follicles to anagen phase by measuring high density of enlarged hair bulbs in subcutaneous tissue at 5 %, TOP administered once daily for 14 days with co-administration of 0.2% testosterone for 28 days by H and E staining based analysis. The series is classed as functional, organism-based. Particulars: time 14.0 day.

Series [13] relates to Mus musculus. The series is described as follows: Hair regeneration efficacy in testosterone induced male C57BL/6 mouse androgenetic alopecia model assessed as increase in hair cycle score at 5 %, TOP administered once daily for 14 days with co-administration of 0.2% testosterone for 28 days. In kind it is functional, organism-based. Particulars: time 14.0 day.
In series [14] the test system is Mus musculus. As to the kind of experiment: Hair regeneration efficacy in testosterone induced male C57BL/6 mouse androgenetic alopecia model assessed as increase in Ki67 expression in skin at 5 % TOP administered once daily for 14 days with co-administration of 0.2% testosterone for 28 days by DAPI staining based immunofluorescence analysis. The series is classed as functional, organism-based. Particulars: time 14.0 day.

Active and inactive are the calls of the source. The calls are words filed in the database; no cut-off is given here.

Protein cereblon/Androgen receptor, sequence (P10275 whole entry): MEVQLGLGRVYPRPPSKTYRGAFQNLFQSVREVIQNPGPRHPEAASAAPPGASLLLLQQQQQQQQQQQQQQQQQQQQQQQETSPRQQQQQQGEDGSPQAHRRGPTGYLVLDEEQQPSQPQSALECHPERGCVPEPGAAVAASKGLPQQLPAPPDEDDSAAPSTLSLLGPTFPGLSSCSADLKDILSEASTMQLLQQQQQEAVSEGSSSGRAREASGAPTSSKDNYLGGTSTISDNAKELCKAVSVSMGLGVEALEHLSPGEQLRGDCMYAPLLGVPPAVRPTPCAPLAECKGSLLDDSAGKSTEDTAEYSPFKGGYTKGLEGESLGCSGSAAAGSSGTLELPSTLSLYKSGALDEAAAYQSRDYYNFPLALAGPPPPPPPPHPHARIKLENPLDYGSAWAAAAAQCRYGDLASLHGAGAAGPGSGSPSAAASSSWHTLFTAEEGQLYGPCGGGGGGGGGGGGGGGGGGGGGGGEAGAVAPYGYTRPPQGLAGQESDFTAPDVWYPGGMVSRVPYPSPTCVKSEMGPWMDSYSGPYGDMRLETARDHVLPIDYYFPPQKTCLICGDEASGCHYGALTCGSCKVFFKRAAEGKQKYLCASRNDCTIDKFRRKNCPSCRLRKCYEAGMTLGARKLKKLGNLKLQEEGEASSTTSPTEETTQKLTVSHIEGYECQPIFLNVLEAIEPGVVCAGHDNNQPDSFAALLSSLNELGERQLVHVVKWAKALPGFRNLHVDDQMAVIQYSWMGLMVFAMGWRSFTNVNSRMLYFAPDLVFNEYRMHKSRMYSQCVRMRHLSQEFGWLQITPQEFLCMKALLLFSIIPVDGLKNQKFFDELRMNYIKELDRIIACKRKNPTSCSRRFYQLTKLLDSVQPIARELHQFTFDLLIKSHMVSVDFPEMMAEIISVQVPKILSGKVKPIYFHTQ
Protein cereblon/Androgen receptor, sequence (Q96SW2 whole entry): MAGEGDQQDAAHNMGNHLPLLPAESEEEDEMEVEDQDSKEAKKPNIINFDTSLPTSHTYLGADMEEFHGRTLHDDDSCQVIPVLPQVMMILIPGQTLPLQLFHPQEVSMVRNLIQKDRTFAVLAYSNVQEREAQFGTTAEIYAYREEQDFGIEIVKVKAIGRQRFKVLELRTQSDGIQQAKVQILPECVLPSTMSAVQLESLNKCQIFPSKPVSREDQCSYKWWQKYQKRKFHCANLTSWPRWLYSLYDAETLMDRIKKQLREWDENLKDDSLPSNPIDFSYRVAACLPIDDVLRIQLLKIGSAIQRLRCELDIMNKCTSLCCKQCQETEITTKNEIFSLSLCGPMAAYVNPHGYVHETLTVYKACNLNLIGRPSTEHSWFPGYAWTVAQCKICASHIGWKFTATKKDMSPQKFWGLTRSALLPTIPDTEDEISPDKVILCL

Regarding `CNC(=O)c1ccc(N2C(=S)N(c3ccc(C#N)c(C(F)(F)F)c3)C(=O)C2(C)C)cc1F` [ENZALUTAMIDE], in series [1], the result was inactive. Moreover, the result in series [2] and in [3] was Active. Also, in series [4], the Activity was found to be 1195 pg/mL.

For `O=C1CCC(NC(=O)c2ccc(N3CCN(CCC4CCN(c5ccc(F)cc5)CC4)CC3)cc2)C(=O)N1` (stereo not given), the Drug uptake in series [5] was 3.92%. As to `O=C1CCC(NC(=O)c2ccc(N3CCN(CCCCc4ccc(F)cc4)CC3)cc2)C(=O)N1` (stereo not given), the Drug uptake in series [5] turned out to be 6.93%. Still for that read-out and setting: the result for `N#Cc1ccc(O[C@H]2CC[C@H](NC(=O)c3ccc(N4CCN(CC5CCN(c6ccc7c(c6)C(=O)N(C6CCC(=O)NC6=O)C7=O)CC5)CC4)cc3)CC2)cc1Cl` (stereo not given in full) reads 0.69%. `O=C1CCC(N2Cc3cc(C#CCN4CCN(c5ccc(C(F)(F)F)cc5)CC4)ccc3C2=O)C(=O)N1` (stereo not given): the Drug uptake in [5] turned out to be 2.48%. Same read-out and setting: the same measure for `O=C1CCC(N2Cc3cc(OCC#CCN4CCN(CC#Cc5ccc(C(F)(F)F)cc5)CC4)ccc3C2=O)C(=O)N1` (stereo not given): 5.41%; for `O=C1CCC(N2C(=O)c3ccc(N4CC(N5CCN(c6ccc(C(F)(F)F)cc6)CC5)C4)cc3C2=O)C(=O)N1` (stereo not given): 5.84%; for `O=C1CCC(N2C(=O)c3ccc(N4CCCC(CN5CCC(c6ccc(C(F)(F)F)cc6)CC5)C4)cc3C2=O)C(=O)N1` (stereo not given): 5.75%.

On to `N#Cc1ccc(O[C@H]2CC[C@H](NC(=O)c3ccc(N4CCC(N5CCN(c6ccc(C(=O)NC7CCC(=O)NC7=O)cc6)CC5)CC4)cc3)CC2)cc1Cl` (stereo not given in full), for which the Drug uptake in series [5] was found to be 1.31%. For the same compound, in series [6], the DC50 amounted to 0.104 µM.

Turning to `N#Cc1ccc(O[C@H]2CC[C@H](NC(=O)c3ccc(N4CCC(CN5CCN(c6ccc(C(=O)NC7CCC(=O)NC7=O)cc6)CC5)CC4)cc3)CC2)cc1Cl` (stereo not given in full), the Drug uptake in [5] is 0.81%. In addition, in series [6], the DC50 was more than 1 µM. As for `N#Cc1ccc(O[C@H]2CC[C@H](NC(=O)c3ccc(N4CCC(CN5CCN(c6ccc7c(c6)C(=O)N(C6CCC(=O)NC6=O)C7=O)CC5)CC4)cc3)CC2)cc1Cl` (stereo not given in full), in series [5], the Drug uptake is 0.62%. Further, the DC50 in [6] was 0.207 µM. `O=C1CCC(N2C(=O)c3cc(F)c(N4CC(CN5CCC(c6ccc(C(F)(F)F)cc6)CC5)C4)cc3C2=O)C(=O)N1` (stereo not given): in series [5], the Drug uptake is 2.22%.

Regarding `Nc1cc(N2CCCCC2)nc(N)[n+]1[O-]` [MINOXIDIL], the result (in [1]; with Mus musculus [9]) was inactive. Besides, the outcome (in [2]; in series [3]; with Mus musculus [7]; in the series on Mus musculus [8]; with Mus musculus [10]; in the series with Mus musculus [11]) was Active. Moreover, the result in the series on Mus musculus [12], in the series with Mus musculus [13] and in the series on Mus musculus [14] was Active. The Activity in series [4] worked out at 952.22 pg/mL.

`O=C1CCC(NC(=O)c2ccc(N3CCN(C4CCN(c5ccc(F)cc5)CC4)CC3)cc2)C(=O)N1` (stereo not given): the Drug uptake in series [5] came out at 9.12%. `O=C1CCC(N2C(=O)c3ccc(N4CCC(CN5CCC(c6ccc(C(F)(F)F)cc6)CC5)C4)cc3C2=O)C(=O)N1` (stereo not given): the Drug uptake in [5] was 1.94%.

Regarding `N#Cc1ccc(O[C@H]2CC[C@H](NC(=O)c3ccc(CCCCN4CCN(c5ccc(C(=O)NC6CCC(=O)NC6=O)cc5)CC4)cc3)CC2)cc1Cl` (stereo not given in full), in series [5], the Drug uptake was determined as 1.49%. Moreover, the half-maximal degradation concentration (DC50) in series [6] was more than 1 µM. Consider `N#Cc1ccc(O[C@H]2CC[C@H](NC(=O)c3ccc(N4CCN(CC5CCN(c6ccc(C(=O)NC7CCC(=O)NC7=O)cc6)C5)CC4)cc3)CC2)cc1Cl` (stereo not given in full), for which the Drug uptake in [5] amounted to 1.86%. In addition, in [6], the DC50 was more than 1 µM. For `N#Cc1ccc(O[C@H]2CC[C@H](NC(=O)c3ccc(C4CCN(CC5CN(c6ccc7c(c6)C(=O)N(C6CCC(=O)NC6=O)C7=O)C5)CC4)cc3)CC2)cc1Cl` (stereo not given in full), in that order: 0.6% and more than 1 µM. Consider `N#Cc1ccc(O[C@H]2CC[C@H](NC(=O)c3ccc(C4CCN(CC5CN(c6ccc(C(=O)NC7CCC(=O)NC7=O)cc6)C5)CC4)cc3)CC2)cc1Cl` (stereo not given in full), for which the Drug uptake in [5] was 1.23%. Besides, the half-maximal degradation concentration (DC50) in [6] amounted to 0.0709 µM. As to `O=C1CCC(N2C(=O)c3cccc(N4CCC(CN5CCN(c6ccc(C(F)(F)F)cc6)CC5)C4)c3C2=O)C(=O)N1` (stereo not given), the Drug uptake in series [5] is 0.96%.

Regarding `O=C1CCC(N2Cc3c(OCC#CCN4CCN(CC#Cc5ccc(C(F)(F)F)cc5)CC4)cccc3C2=O)C(=O)N1` (stereo not given), the Drug uptake in [5] is 1.91%. Regarding `N#Cc1ccc(O[C@H]2CC[C@H](NC(=O)c3ccc(N4CCN(C5CN(c6ccc7c(c6)C(=O)N(C6CCC(=O)NC6=O)C7=O)C5)CC4)cc3)CC2)cc1Cl` (stereo not given in full), the Drug uptake in [5] is given as 1.41%. Further, in [6], the DC50 is more than 1 µM. For `N#Cc1ccc(O[C@H]2CC[C@H](NC(=O)c3ccc(N4CCC(CCN5CCN(c6ccc(C(=O)NC7CCC(=O)NC7=O)cc6)CC5)CC4)cc3)CC2)cc1Cl` (stereo not given in full), in that order: 1% and more than 1 µM. In the case of `O=C1CCC(N2C(=O)c3cccc(NC4CCN(CC5CCN(c6ccc(C(F)(F)F)cc6)CC5)CC4)c3C2=O)C(=O)N1` (stereo not given), the Drug uptake in series [5] is 4.34%. `O=C1CCC(N2C(=O)c3ccc(N4CC(CN5CCC(c6ccc(C(F)(F)F)cc6)CC5)C4)cc3C2=O)C(=O)N1` (stereo not given): in series [5], the Drug uptake turned out to be 8.45%. As for `O=C1CCC(NC(=O)c2ccc(N3CCN(CC4CCN(c5ccc(F)cc5)CC4)CC3)cc2)C(=O)N1` (stereo not given), the Drug uptake in series [5] amounted to 4.99%. On to `N#Cc1ccc(O[C@H]2CC[C@H](NC(=O)c3ccc(N4CCN(CC5CCN(c6ccc7c(c6)C(=O)N(C6CCC(=O)NC6=O)C7=O)C5)CC4)cc3)CC2)cc1Cl` (stereo not given in full), for which the Drug uptake in [5] worked out at 0.74%. In series [6], the DC50 was more than 1 µM.

Consider `O=C1CCC(N2C(=O)c3ccc(N4CCN(CC5CCN(c6ccc(C(F)(F)F)cc6)CC5)CC4)cc3C2=O)C(=O)N1` (stereo not given), for which the Drug uptake in series [5] was 8.73%. Take `N#Cc1ccc(O[C@H]2CC[C@H](NC(=O)c3ccc(C4CCN(CC5CCCN(c6ccc7c(c6)C(=O)N(C6CCC(=O)NC6=O)C7=O)C5)CC4)cc3)CC2)cc1Cl` (stereo not given in full): the Drug uptake in [5] turned out to be 0.58%. Also, in series [6], the DC50 was more than 1 µM. For `O=C1CCC(N2C(=O)c3ccc(N4CCC(CN5CCN(c6ccc(C(F)(F)F)cc6)CC5)C4)cc3C2=O)C(=O)N1` (stereo not given), the Drug uptake in [5] is listed as 0.68%.
